Laboratory results as given in paper PMC11273431, “Isolation, Characterization, and Functional Properties of Antioxidant Peptides from Mulberry Leaf Enzymatic Hydrolysates” (Antioxidants, 2024).

Tests used:
Type in all cases: cell-based
HepG2 cells [1] = test: Cell viability, CCK-8; conditions: 160 μM H2O2, 24 h
Procedure: HepG2 cells were cultured in a complete medium (90% DMEM + 10% FBS + 100 units/mL penicillin and 100 μg/mL streptomycin) at 37 °C, 5% CO2, and 90% relative humidity. The Cell Counting Kit-8 (CCK-8) Assay Kit was used to detect the effect of H2O2 and peptides on cell viability. HepG2 cells (1 × 10^5 cells/mL) were pre-seeded in a 96-well culture plate overnight and then treated with H2O2 and peptides at 37 °C for 24 h. Cell viability was assessed with the CCK-8 kit (Item No. BS350C) according to the protocol supplied by the manufacturer.

HepG2 cells [2] = test: Protective effect against H2O2-induced oxidative damage, CCK-8; conditions: peptide 100 μg/mL pretreatment 6 h, then H2O2 160 μM 24 h
Procedure: We first established a H2O2-induced oxidative damage model in HepG2 cells. HepG2 cells (1 × 10^5 cells/mL) in a volume of 100 μL were seeded in a 96-well culture plate and incubated at 37 °C for 24 h. The control group and damage group received 100 μL of DMEM, the positive control group received 100 μL of 100 μg/mL Trolox, and the experimental group received 100 μL of DMEM containing different concentrations of peptides.
After culturing for another 6 h, the experimental and damage groups were exposed to H2O2 (160 μM) for 24 h, while the control group received an equal volume of DMEM. Finally, cell viability was measured following the procedures in Section 2.8.

CAT = CAT activity in HepG2 cells; conditions: 5–10 μg/mL pretreatment 6 h, then H2O2 160 μM 24 h; p < 0.01
Procedure: (§1) First, HepG2 cells (1 × 10^5 cells/mL) in a volume of 2 mL were seeded in a 6-well culture plate and incubated at 37 °C for 24 h. Experimental grouping and treatments were the same as in Section 2.9. Next, cells were collected, and cell lysis was performed using RIPA cell lysis solution. The protein concentration in cell lysates was determined by the BCA protein assay kit. SOD (Item No. A001-3-2) and CAT (Item No. A007-1-1) activity assays were carried out according to the instructions provided with the corresponding assay kits.

ROS in HepG2 cells = test: ROS levels, DCFH-DA fluorescence; conditions: 5–10 μg/mL pretreatment 6 h, then H2O2 160 μM 24 h; p < 0.01
Procedure: HepG2 cells were treated as in Section 2.10. After that, the supernatant was discarded, and cells were gently washed twice with PBS. Subsequently, the cells were incubated with DMEM containing 10 μM DCFH2-DA at 37 °C for 20 min. After the incubation, the cells were carefully washed twice with PBS, and then 1 mL of DMEM was added, after which the cells were observed under a fluorescence microscope.
The contents of ROS were indicated by DCF fluorescence and quantified using excitation and emission filters of 488 and 525 nm, respectively. The ROS levels were expressed as a percentage of the blank control values.

HepG2 cells [3] = test: Apoptosis, Annexin V-FITC/PI flow cytometry; conditions: 5–10 μg/mL pretreatment 6 h, then H2O2 160 μM 24 h
Procedure: HepG2 cells were treated as in Section 2.10. After that, cells were collected, rinsed twice with PBS, and then resuspended in Apoptosis Detection Staining solution (containing 2 μL of Annexin V-FITC dye, 5 μL of PI dye, and 100 μL of Binding buffer).
After 15 min of dark incubation at room temperature, cells were analyzed for their apoptotic status (Ex = 488 nm, FL1 EM = 515 nm, FL2 EM = 560 nm) using the BD Fortessa flow cytometer (Becton Dickinson, Franklin Lakes, NJ, USA), and the data were analyzed with Flowjo software 10.0.

SOD = SOD activity in HepG2 cells; conditions: 5–10 μg/mL pretreatment 6 h, then H2O2 160 μM 24 h; p < 0.01
Procedure: as §1

HepG2 cells [4] = test: Hoechst 33258 staining, chromatin damage; conditions: 5–10 μg/mL pretreatment 6 h, then H2O2 160 μM 24 h; fluorescence microscopy
Procedure: (§2) HepG2 cells were treated as in Section 2.10. Hoechst 33258 (Item No. C0021) and JC-1 (Item No. M8650) staining was performed according to the instructions provided in the staining kit.
Hoechst 33258 staining was directly observed using a fluorescence microscope.

HepG2 cells [5] = test: JC-1 staining, mitochondrial membrane potential; conditions: 5–10 μg/mL pretreatment 6 h, then H2O2 160 μM 24 h; for JC-1 green fluorescence: fluorescence microscopy; for JC-1 red/green fluorescence ratio: microplate reader, versus H2O2 damage group
Procedure: as §2
After JC-1 staining, the samples were examined under a fluorescence microscope. […] The red/green fluorescence ratio can be considered a direct indicator of the state of mitochondrial polarization.

Compound | Cell survival rate (HepG2 cells [1]) | Mitigating effect on H2O2-induced oxidative damage (cell survival rate) (HepG2 cells [2]) | CAT activity (CAT) | Cellular DCF fluorescence intensity (ROS) (ROS in HepG2 cells) | Apoptosis rate (HepG2 cells [3]) | SOD activity (SOD) | Hoechst 33258 nuclear fluorescence (chromatin damage) (HepG2 cells [4]) | JC-1 green fluorescence (HepG2 cells [5]) | JC-1 red/green fluorescence ratio (HepG2 cells [5])
OO [Peptide H2O2, hydrogen peroxide] | ~50% |  |  |  |  |  |  |  | 
EGDAGAQGPPGPAGPAGER [Peptide P6] |  | significantly better than those of the other peptides | significant increase | significantly reduced | significantly reduced the apoptosis rate | significant increase | reduced blue fluorescence and fewer bright spots | reduced green fluorescence | effectively alleviated
RPGPSPGVGAPGK [Peptide P7] |  | significantly better than those of the other peptides | significant increase | significantly reduced | significantly reduced the apoptosis rate | significant increase | reduced blue fluorescence and fewer bright spots | reduced green fluorescence | effectively alleviated
